Assay results reported in PMC8207662, “Divergent camptothecin biosynthetic pathway in Ophiorrhiza pumila” (BMC Biology, 2021).

How the values were obtained:
OpSLS4 = target: T1, OpSLS4 (Ophiorrhiza pumila, UniProt A0A8F3BRW9); assay: yeast microsome assay, HPLC of secologanin; format: biochemical; details: 1 mM NADPH; 30 °C
T1 construct: gene SLS4; expressed from pESC-Leu in yeast WAT11, microsomes

OpSLS3 = target: T2, OpSLS3 (Ophiorrhiza pumila, UniProt A0A8F3BRG6); assay: yeast microsome assay, HPLC of secologanin; format: biochemical; details: 1 mM NADPH; 30 °C
T2 construct: gene SLS3; expressed from pESC-Leu in yeast WAT11, microsomes
T2 sequence (A0A8F3BRG6 1-521): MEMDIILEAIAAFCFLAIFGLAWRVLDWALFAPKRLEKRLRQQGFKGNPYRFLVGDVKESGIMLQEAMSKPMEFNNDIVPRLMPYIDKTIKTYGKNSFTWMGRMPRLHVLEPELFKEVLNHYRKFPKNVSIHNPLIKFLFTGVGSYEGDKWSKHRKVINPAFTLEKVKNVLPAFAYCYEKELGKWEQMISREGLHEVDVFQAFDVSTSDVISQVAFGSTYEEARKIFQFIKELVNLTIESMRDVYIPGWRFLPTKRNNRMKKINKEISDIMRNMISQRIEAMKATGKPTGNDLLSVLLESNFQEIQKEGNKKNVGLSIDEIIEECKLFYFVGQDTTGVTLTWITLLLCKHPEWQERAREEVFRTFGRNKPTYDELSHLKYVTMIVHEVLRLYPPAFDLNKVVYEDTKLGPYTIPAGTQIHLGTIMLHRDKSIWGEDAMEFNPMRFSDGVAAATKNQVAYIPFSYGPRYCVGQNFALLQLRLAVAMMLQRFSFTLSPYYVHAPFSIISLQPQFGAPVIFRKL

OpSLS6 = target: T3, OpSLS6 (Ophiorrhiza pumila, UniProt A0A8F3BQ54); assay: yeast microsome assay, HPLC of secologanin; format: biochemical; details: 1 mM NADPH; 30 °C
T3 construct: gene SLS6; expressed from pESC-Leu in yeast WAT11, microsomes
T3 sequence (A0A8F3BQ54 1-516): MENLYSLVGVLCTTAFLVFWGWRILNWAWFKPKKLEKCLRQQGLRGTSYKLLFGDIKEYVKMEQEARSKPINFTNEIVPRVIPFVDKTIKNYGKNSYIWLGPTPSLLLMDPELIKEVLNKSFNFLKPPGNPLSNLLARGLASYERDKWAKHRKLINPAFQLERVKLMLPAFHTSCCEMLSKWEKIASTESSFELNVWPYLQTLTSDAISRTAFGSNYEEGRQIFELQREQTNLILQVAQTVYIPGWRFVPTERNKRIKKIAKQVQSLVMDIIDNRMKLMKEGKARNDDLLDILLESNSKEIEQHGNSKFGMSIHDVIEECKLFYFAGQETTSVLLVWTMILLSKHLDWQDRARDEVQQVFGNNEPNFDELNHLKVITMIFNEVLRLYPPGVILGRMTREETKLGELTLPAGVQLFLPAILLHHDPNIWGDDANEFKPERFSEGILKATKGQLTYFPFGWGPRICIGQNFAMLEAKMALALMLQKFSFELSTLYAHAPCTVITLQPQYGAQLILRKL

OpSLS5 = target: T4, OpSLS5 (Ophiorrhiza pumila, UniProt A0A8F3BPP9); assay: yeast microsome assay, HPLC of secologanin; format: biochemical; details: 1 mM NADPH; 30 °C
T4 construct: gene SLS5; expressed from pESC-Leu in yeast WAT11, microsomes
T4 sequence (A0A8F3BPP9 1-521): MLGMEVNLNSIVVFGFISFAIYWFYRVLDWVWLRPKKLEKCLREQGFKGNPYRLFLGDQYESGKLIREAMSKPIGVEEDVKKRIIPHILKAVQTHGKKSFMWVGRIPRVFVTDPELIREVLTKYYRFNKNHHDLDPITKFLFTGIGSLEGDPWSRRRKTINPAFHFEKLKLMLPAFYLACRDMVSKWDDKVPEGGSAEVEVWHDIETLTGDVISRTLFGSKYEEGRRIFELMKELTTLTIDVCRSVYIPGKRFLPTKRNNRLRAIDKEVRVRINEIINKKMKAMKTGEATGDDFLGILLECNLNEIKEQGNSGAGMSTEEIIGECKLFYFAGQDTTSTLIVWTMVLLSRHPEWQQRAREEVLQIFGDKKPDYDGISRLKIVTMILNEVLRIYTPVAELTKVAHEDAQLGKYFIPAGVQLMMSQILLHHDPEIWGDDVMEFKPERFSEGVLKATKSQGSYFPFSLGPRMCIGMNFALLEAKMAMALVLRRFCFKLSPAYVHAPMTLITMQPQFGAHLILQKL

OpSLS1 = target: T5, OpSLS1 (Ophiorrhiza pumila, UniProt A0A8F2YIW0); assay: yeast microsome assay, HPLC of secologanin; format: biochemical; details: 1 mM NADPH; 30 °C
T5 construct: gene SLS1; expressed from pESC-Leu in yeast WAT11, microsomes
T5 sequence (A0A8F2YIW0 1-522): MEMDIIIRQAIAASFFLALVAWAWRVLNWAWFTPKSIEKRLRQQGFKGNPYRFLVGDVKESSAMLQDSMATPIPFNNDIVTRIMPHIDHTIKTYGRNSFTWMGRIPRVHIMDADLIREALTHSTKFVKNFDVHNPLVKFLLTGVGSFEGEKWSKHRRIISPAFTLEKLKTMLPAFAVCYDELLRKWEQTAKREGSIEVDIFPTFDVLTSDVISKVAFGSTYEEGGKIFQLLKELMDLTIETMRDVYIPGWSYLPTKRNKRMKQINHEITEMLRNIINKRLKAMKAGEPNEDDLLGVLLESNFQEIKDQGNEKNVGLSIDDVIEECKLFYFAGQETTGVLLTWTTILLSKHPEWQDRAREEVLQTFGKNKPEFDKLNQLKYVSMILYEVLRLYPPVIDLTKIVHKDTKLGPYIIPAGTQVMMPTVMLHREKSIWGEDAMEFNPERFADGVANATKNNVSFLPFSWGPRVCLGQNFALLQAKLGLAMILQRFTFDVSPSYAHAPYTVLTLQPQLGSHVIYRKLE

CaSTR1 = target: T6, CaSTR1 (Camptotheca acuminata, UniProt A0A8F2YIY3); assay: LC-MS of strictosidine formation; format: biochemical; details: tryptamine co-substrate
T6 construct: gene STR1; recombinant from pET30a in E. coli BL21(DE3), Ni resin purified
T6 sequence (A0A8F2YIY3 73-370): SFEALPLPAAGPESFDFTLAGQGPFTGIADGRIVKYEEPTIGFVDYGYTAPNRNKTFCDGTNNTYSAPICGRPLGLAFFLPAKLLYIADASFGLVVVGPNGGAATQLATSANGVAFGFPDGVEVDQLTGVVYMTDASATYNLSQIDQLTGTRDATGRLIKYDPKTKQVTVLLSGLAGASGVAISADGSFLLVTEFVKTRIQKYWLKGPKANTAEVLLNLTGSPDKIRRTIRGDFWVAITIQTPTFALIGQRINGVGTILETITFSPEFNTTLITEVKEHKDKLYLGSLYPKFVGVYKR

CaSTR2 [1] = target: T7, CaSTR2 (Camptotheca acuminata, UniProt A0A8F2YJ04); assay: LC-MS of strictosidine formation; format: biochemical; details: tryptamine co-substrate
T7 construct: gene STR2; recombinant from pET30a in E. coli BL21(DE3), Ni resin purified
T7 sequence (A0A8F2YJ04 32-329): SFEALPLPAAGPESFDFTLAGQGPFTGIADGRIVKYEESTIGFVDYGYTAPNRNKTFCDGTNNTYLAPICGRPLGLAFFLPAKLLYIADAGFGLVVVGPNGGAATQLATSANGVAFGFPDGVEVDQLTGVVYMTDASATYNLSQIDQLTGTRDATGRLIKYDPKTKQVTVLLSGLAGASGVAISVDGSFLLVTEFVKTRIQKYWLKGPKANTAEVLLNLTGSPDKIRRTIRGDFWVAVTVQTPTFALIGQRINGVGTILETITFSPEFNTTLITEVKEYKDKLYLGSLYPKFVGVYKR

CaSTR3 = target: T8, CaSTR3 (Camptotheca acuminata, UniProt A0A8F2YIV8); assay: LC-MS of strictosidine formation; format: biochemical; details: tryptamine co-substrate
T8 construct: gene STR3; recombinant from pET30a in E. coli BL21(DE3), Ni resin purified
T8 sequence (A0A8F2YIV8 31-330): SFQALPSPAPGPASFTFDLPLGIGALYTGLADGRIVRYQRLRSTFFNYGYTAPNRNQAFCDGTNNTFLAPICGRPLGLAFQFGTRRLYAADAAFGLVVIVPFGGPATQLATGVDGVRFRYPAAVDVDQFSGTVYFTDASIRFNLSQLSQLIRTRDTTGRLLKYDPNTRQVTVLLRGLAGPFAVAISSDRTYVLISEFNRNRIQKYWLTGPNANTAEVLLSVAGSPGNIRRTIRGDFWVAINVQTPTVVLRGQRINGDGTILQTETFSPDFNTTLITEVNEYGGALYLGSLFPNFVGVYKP

OpLAMT [2] = target: T9, OpLAMT (Ophiorrhiza pumila, UniProt A0A8F2YIU9); assay: HPLC assay, loganin formation; format: biochemical; details: 1 mM SAM; pH 7.5; 30 °C
T9 construct: gene LAMT; recombinant from pET-30a in E. coli BL21(DE3), Ni resin purified
T9 sequence (A0A8F2YIU9 1-381): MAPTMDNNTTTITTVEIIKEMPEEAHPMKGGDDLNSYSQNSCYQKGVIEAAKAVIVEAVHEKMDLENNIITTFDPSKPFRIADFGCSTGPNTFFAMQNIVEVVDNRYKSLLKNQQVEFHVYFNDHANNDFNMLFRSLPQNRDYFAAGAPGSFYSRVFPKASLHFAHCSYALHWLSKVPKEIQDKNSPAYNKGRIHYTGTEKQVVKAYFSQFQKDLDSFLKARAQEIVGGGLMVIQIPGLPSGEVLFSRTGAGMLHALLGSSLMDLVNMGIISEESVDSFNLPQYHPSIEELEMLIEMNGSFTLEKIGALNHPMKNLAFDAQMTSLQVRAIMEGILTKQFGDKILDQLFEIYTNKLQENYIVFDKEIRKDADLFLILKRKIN

OpLAMT [3] = target: T9, OpLAMT; assay: assay of secologanin formation, printed as microsome assay with recombinant OpLAMT; format: biochemical; details: SAM
CaSTR2 [4] = target: T7, CaSTR2; assay: LC-MS of strictosidinic acid formation; format: biochemical; details: tryptamine co-substrate
[5] = substrate: C=C[C@H]1[C@H](O[C@@H]2O[C@H](CO)[C@@H](O)[C@H](O)[C@H]2O)OC=C(C(=O)OC)[C@H]1CC=O; assay: LC-MS of strictosidine formation; format: biochemical, Ophiorrhiza pumila; details: tryptamine co-substrate
Source text: LC-MS of strictosidine formation on OpSTR | we furtherly characterized the kinetic parameters of OpSTR using LCMS

T1 sequence (A0A8F3BRW9 1-517): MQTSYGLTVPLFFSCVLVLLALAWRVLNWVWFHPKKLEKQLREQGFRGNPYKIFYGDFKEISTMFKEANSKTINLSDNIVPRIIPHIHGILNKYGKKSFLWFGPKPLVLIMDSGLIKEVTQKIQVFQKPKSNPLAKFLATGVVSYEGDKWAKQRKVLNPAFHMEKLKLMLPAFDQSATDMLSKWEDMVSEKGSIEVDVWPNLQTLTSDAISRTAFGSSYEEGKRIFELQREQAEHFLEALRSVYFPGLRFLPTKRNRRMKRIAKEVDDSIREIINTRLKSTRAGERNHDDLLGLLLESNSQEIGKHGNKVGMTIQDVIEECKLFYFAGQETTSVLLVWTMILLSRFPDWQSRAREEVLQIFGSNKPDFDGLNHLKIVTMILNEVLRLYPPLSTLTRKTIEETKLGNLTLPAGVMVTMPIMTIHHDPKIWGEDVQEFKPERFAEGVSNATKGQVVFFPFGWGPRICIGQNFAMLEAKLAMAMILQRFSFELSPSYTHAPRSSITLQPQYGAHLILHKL

## COC(=O)C1=CO[C@@H](O[C@@H]2O[C@H](CO)[C@@H](O)[C@H](O)[C@H]2O)[C@@H]2[C@@H](C)[C@@H](O)C[C@H]12 [loganin]
OpSLS4
  yeast microsome assay, HPLC of secologanin: five OpSLS proteins (OpSLS1, OpSLS3, OpSLS4, OpSLS5, OpSLS6) exhibited secologanin synthase activity
OpSLS3
  yeast microsome assay, HPLC of secologanin: five OpSLS proteins (OpSLS1, OpSLS3, OpSLS4, OpSLS5, OpSLS6) exhibited secologanin synthase activity
OpSLS6
  yeast microsome assay, HPLC of secologanin: five OpSLS proteins (OpSLS1, OpSLS3, OpSLS4, OpSLS5, OpSLS6) exhibited secologanin synthase activity
OpSLS5
  yeast microsome assay, HPLC of secologanin: five OpSLS proteins (OpSLS1, OpSLS3, OpSLS4, OpSLS5, OpSLS6) exhibited secologanin synthase activity
OpSLS1
  yeast microsome assay, HPLC of secologanin: five OpSLS proteins (OpSLS1, OpSLS3, OpSLS4, OpSLS5, OpSLS6) exhibited secologanin synthase activity

## C=C[C@H]1[C@H](O[C@@H]2O[C@H](CO)[C@@H](O)[C@H](O)[C@H]2O)OC=C(C(=O)OC)[C@H]1CC=O [secologanin]
CaSTR1
  LC-MS of strictosidine formation: NnSTR, CaSTR1, and CaSTR3 displayed substrate specificity towards secologanin only
CaSTR2 [1]
  LC-MS of strictosidine formation: OpSTR and CaSTR2 used both secologanin and secologanic acid activity as their substrates
CaSTR3
  LC-MS of strictosidine formation: NnSTR, CaSTR1, and CaSTR3 displayed substrate specificity towards secologanin only

## C[C@@H]1[C@H]2[C@H](O[C@@H]3O[C@H](CO)[C@@H](O)[C@H](O)[C@H]3O)OC=C(C(=O)O)[C@H]2C[C@@H]1O [loganic acid]
OpLAMT [2]
  HPLC assay, loganin formation: The purified recombinant protein converted loganic acid and S-adenosyl methionine (SAM) into loganin

## C=C[C@@H]1C(CC=O)C(C(=O)O)=CO[C@H]1O[C@@H]1O[C@H](CO)[C@@H](O)[C@H](O)[C@H]1O (stereo partly drawn) [secologanic acid]
OpLAMT [3]
  assay of secologanin formation, printed as microsome assay with recombinant OpLA: a microsome assay with secologanic acid as a substrate for recombinant OpLAMT revealed methylation
CaSTR2 [4]
  LC-MS of strictosidinic acid formation: OpSTR and CaSTR2 used both secologanin and secologanic acid activity as their substrates

B1: OpSTR (Ophiorrhiza pumila) (protein)
chain: SPEFFEFIEAPSYGPNAYAFDSDGELYASVEDGRIIKYDKPSNKFLTHAVASPIWNNALCENNTNQDLKPLCGRVYDFGFHYETQRLYIADCYFGLGFVGPDGGHAIQLATSGDGVEFKWLYALAIDQQAGFVYVTDVSTKYDDRGVQDIIRINDTTGRLIKYDPSTEEVTVLMKGLNIPGGTEVSKDGSFVLVGEFASHRILKYWLKGPKANTSEFLLKVRGPGNIKRTKDGDFWVASSDNNGITVTPRGIRFDEFGNILEVVAIPLPYKGEHIEQVQEHDGALFVGSLFHEFVGILHNYKSSVDHHQEKNSGGLNASFKEFSSF
notes: recombinant from pET30a in E. coli BL21(DE3), Ni resin purified
[5]
  Km: 382 ± 68.1 µM
  Vmax: 0.0377 µmol/min/mg
  kcat: 0.0524 s⁻¹
  kcat/Km: 137 M⁻¹ s⁻¹
